Changes are numbered by the printed parent chain. “And” between values parts separate entries of the source, which are not always exact repeats. Equal values may be shown once. Read-outs that look alike come from different tables or passages of the source. One block for each compound: values may come before it.
Key:
M2R [1] = biological target: T1, M2R (Homo sapiens, UniProt P08172, M139L/M142L/M1T/M248L/M296L/M368L/M456T/M45L); format: biochemical; settings: 100 μM Ixo or 1 mM carbachol
T1 construct: We used a full-length construct M2RFL△8 M for complexing with miniGαo and β-arrestin-1; FLAG (N); 8xHis (C); made in house; host or cells: Sf9 insect cells
T1 sequence (P08172 1-466 M1T/M45L/M139L/M142L/M248L/M296L/M368L/M456T): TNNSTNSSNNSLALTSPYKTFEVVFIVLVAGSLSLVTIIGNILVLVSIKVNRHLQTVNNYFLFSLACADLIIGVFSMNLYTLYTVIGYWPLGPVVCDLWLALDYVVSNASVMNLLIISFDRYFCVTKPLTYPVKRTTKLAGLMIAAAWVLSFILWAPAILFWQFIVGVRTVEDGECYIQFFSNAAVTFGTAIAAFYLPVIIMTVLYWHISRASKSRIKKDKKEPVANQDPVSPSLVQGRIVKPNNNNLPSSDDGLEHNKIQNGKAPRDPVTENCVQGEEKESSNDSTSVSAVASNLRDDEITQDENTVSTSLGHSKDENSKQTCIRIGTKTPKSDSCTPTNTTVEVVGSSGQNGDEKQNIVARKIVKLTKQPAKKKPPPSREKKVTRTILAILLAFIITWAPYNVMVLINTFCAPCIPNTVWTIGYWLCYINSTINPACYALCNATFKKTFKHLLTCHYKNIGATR
Method: We used a full-length construct M2RFL△8 M for complexing with miniGαo and β-arrestin-1. The receptor was purified as described above for cryo-EM sample. Excess GRK2 was mixed with the M2R in a buffer composed of 20 mM HEPES pH 7.5, 100 mM NaCl, 0.01% MNG, 0.003% CHS, 500 μM ATP in the presence and absence of 100 μM Ixo or 1 mM carbachol to initiate the phosphorylation at room temperature. The extent of phosphorylation at various time points (from 0 to 120 min) was evaluated by Pro-Q and Coomassie blue staining. The final phosphorylated receptor (Ixo-bound) was further evaluated by ion-exchange chromatography. The complex formation test was performed as follows: unphosphorylated Ixo-bound M2RFL△8 M or phosphorylated M2RFL△8 M was mixed with miniGαo or β-arrestin-1, respectively and incubated on ice for 30 min. The receptor alone or mixed complex sample were then analyzed by SEC against 20 mM HEPES pH 7.5, 100 mM NaCl, 0.01% MNG, 0.003% CHS in the presence of 10 μM Ixo.

M2R [2] = biological target: T2, M2R (Homo sapiens, UniProt P08172); experiment: cell-based; set-up: expressed in transfected cells; host or cells: HEK 293T; settings: for Emax: HEK-293T
T2 sequence (P08172 1-466): T1 sequence (P08172 1-466 M1T/M45L/M139L/M142L/M248L/M296L/M368L/M456T) with T1M, L45M, L139M, L142M, L248M, L296M, L368M, T456M
Method: Determination of β-arrestin-2 recruitment was performed applying the PathHunter assay (DiscoverX, Birmingham, U.K.) which is based on fragment complementation of β-galactosidase as described. In detail, HEK293T cells were transfected with the flag-tagged M2 receptor carrying the PKA fragment for enzyme complementation and transferred into 384-well micro plates. […] Determination of chemoluminescence was done with a Clariostar plate reader (BMG, Ortenberg, Germany). […] Normalized curves from three to five individual experiments each done in duplicate were analyzed by non-linear regression applying the algorithms in Prism 8.0 (GraphPad, San Diego, CA) to get dose-response curves representing average EC50 and Emax value.

M2R [3] = biological target: T2, M2R
M2R and GoA = biological target: T3, M2R and GoA (Homo sapiens, UniProt P08172); experiment: GTPase-Glo assay (GTP turnover) with purified M2R and GoA; format: biochemical; settings: purified wild-type receptor and G-protein
T3 construct: FLAG (N); 8xHis (C); made in house; host or cells: Sf9 insect cells (receptor)
Method: The receptors for GTPase-Glo^TM assay were expressed and purified as described above and frozen at −80 °C before use. […] The GTPase reaction was incubated at room temperature (22–25 °C) for different times (15–90 min). […] After incubation, 5 μL reconstituted 1xGTPase-Glo^TM Reagent (Promega) was added to the completed GTPase reaction, mixed briefly and incubated with shaking for 30 min at room temperature (22–25 °C) to convert the remaining GTP into ATP. Then 10 μL Detection Reagent (Promega) was added to the system and incubated for 5-10 min at room temperature (22–25 °C) to convert the ATP into luminescent signals. Luminescence intensity was quantified using a Multimode Plate Reader (PerkinElmer) luminescence counter.

[4] = biological target: M2 muscarinic receptor (M2R), wild type (human) (UniProt P08172)

- Phosphorylation intensity (M2R [1]; Time 5 min): 334.849
- Phosphorylation intensity (M2R [1]; Time 10 min): 686.698
- Phosphorylation intensity (M2R [1]; Time 15 min): 1559.5
- Phosphorylation intensity (M2R [1]; Time 30 min): 4508.03
- Phosphorylation intensity (M2R [1]; Time 60 min): 11137.8
- Phosphorylation intensity (M2R [1]; Time 120 min): 15286
Compound: C[N+](C)(C)CCOC(N)=O [Carbachol, carbachol]

Compound: Cc1c(Cl)c(OCC(=O)N2CCN(C)CC2)nc2sc(C(=O)NC3CC3)c(N)c12 [LY2119620]
- Emax (M2R [2]; read-out: arrestin recruitment as % max effect of acetylcholin, LY2119620 log [M] 3-4): 46.3%
- Emax (M2R [2]; read-out: arrestin recruitment as % max effect of acetylcholin, LY2119620 log [M] 3-5): 52.5%
- Emax (M2R [2]; read-out: arrestin recruitment as % max effect of acetylcholin, LY2119620 log [M] -5): 42.1%
- arrestin recruitment as % max effect of acetylcholin (M2R [2]; LY2119620 log [M] 3-4): 48.9%
- arrestin recruitment as % max effect of acetylcholin (M2R [2]; LY2119620 log [M] 3-5): 50.0% and 48.5%
- arrestin recruitment as % max effect of acetylcholin (M2R [2]; LY2119620 log [M] 3-7): -0.0286% and 2.4%
- arrestin recruitment as % max effect of acetylcholin (M2R [2]; LY2119620 log [M] -4): 58.7% and 38.0% and 68.2% and 60.8% and 51.7%
- arrestin recruitment as % max effect of acetylcholin (M2R [2]; LY2119620 log [M] -5): 33.4% and 43.9% and 30.6% and 32.3%
- arrestin recruitment as % max effect of acetylcholin (M2R [2]; LY2119620 log [M] -6): 10.6% and 7.5% and 6.2% and 2.4% and 3.8%
- arrestin recruitment as % max effect of acetylcholin (M2R [2]; LY2119620 log [M] -7): 2.1% and 1.5% and 2.0% and 0.9% and 2.9%
- arrestin recruitment as % max effect of acetylcholin (M2R [2]; LY2119620 log [M] -8): 0.6% and 0.5% and 0.9% and -0.171% and -0.548%
- arrestin recruitment as % max effect of acetylcholin (M2R [2]; LY2119620 log [M] -9): 1.3% and -0.4% and -1.2% and -3.6%
- activation of the receptor by the modulator on its own (M2R [3]): can activate the receptor on its own with low efficacy
- IP accumulation as % max effect of acetylcholin (M2R [3]; LY2119620 alone log [M] -4): 59.0% and 70.9% and 76.8% and 52.3% and 51.5% and 62.7% and 67.1%
- IP accumulation as % max effect of acetylcholin (M2R [3]; LY2119620 alone log [M] -10): 3.3% and -1.8% and -2.5% and -3.4% and 3.1%
- inhibition of maximal G-protein activation of both orthosteric agonists (M2R [3]; high concentrations of LY2119620): ~ 10%
- effect on GTP-turnover for both ACh and Ixo (M2R and GoA): significant inhibitory effects

- increase of the affinity of ACh in [3H]-NMS competition binding on M2R in HDL particles on addition of GoA [4]: 65 fold
- increase of the affinity of Ixo in [3H]-NMS competition binding on M2R in HDL particles on addition of GoA [4]: 27 fold
Compound: heterotrimeric GoA protein (from UniProt P09471 1-354; P62873 2-340; P59768 1-71) (complex)
